Source: patent US20240300932A1, “N-PHENYLIMINE DERIVATIVE AND PREPARATION METHOD AND USE THEREOF” (Guizhou University, priority 2023, published 2024)

Columns and labels:
Test in all cases: Post-emergence herbicidal activity test (stem and leaf spray, pot culture)
Format in all cases: in vivo
Conditions in all cases: 3 weeks after spraying
Trifoliumre pensL. = system: Trifoliumre pensL.
Description: (1) Post-Emergence Stem and Leaf Spray Treatment: The weeds were cultivated in a 180 mm×140 mm plastic nutrient pot by a pot-culture method, placed in an enamel tray, and the plastic nutrient pots were filled with surface soil (⅘ of a depth) collected from a farmland and air-dried and sieved, and a soil humidity was controlled at 20% in the initial stage. Weed seeds with plump and uniform grains were selected, soaked in warm water at 25° C. for 6 h, and germinated in a biochemical incubator (dark) at 28° C. The freshly exposed weed seeds were evenly placed on the soil surface, and then covered with 0.5 cm to 1 cm of soil according to the size of the seeds. The weeds are cultivated in a controlled sunlight greenhouse at 20° C. to 30° C., under natural light, and a relative humidity of 57% to 72%. The soil was loam, including 1.63% of organic matters, with a pH value of 7, 84.3 mg/kg of alkaline nitrogen, 38.5 mg/kg of available phosphorus, and 82.1 mg/kg of available potassium. Each treatment was repeated 2 times, each treatment included 12 pots, and 20 weed seeds were sown in each pot. Pesticide was applied in the test for 1 time in total. When the weeds grew to 1.5- to 2-leaf stage, thinning was conducted, with 10 weeds in each pot, and 30 weeds were kept in each treatment. The cultivated weeds were placed on trays with an area of 0.1 m^2, and stems and leaves were sprayed with a sprayer. After applying a pesticide, the pesticide applied weeds were moved into a greenhouse for routine cultivation. 2 weeks after sowing, the test plants were treated at the 2- to 3-leaf stage: the compounds of the present disclosure for testing were dissolved in acetone separately, and added with Tween 80, an emulsifiable oil of 1.5 liters/ha methyl oleate was added as a synergist, and an obtained mixture was diluted with certain water to a certain concentration solution. The solution was sprayed onto the plants using a spray tower. After spraying, the weeds were cultivated in the greenhouse for 3 weeks, and the experimental effects on the weeds were counted. The effective concentrations of the compounds were 10 g/mu, 5 g/mu, and 2.5 g/mu, the experiment was repeated three times, and an average result was taken.

Setaria viridis = system: Setaria viridis
Description: (§1) The weeds were cultivated in a 180 mm×140 mm plastic nutrient pot by a pot-culture method, placed in an enamel tray, and the plastic nutrient pots were filled with surface soil (⅘ of a depth) collected from a farmland and air-dried and sieved, and a soil humidity was controlled at 20% in the initial stage. Weed seeds with plump and uniform grains were selected, soaked in warm water at 25° C. for 6 h, and germinated in a biochemical incubator (dark) at 28° C. The freshly exposed weed seeds were evenly placed on the soil surface, and then covered with 0.5 cm to 1 cm of soil according to the size of the seeds. The weeds are cultivated in a controlled sunlight greenhouse at 20° C. to 30° C., under natural light, and a relative humidity of 57% to 72%. The soil was loam, including 1.63% of organic matters, with a pH value of 7, 84.3 mg/kg of alkaline nitrogen, 38.5 mg/kg of available phosphorus, and 82.1 mg/kg of available potassium.
(§2) Each treatment was repeated 2 times, each treatment included 12 pots, and 20 weed seeds were sown in each pot. Pesticide was applied in the test for 1 time in total. When the weeds grew to 1.5- to 2-leaf stage, thinning was conducted, with 10 weeds in each pot, and 30 weeds were kept in each treatment.
(§3) The cultivated weeds were placed on trays with an area of 0.1 m^2, and stems and leaves were sprayed with a sprayer. After applying a pesticide, the pesticide applied weeds were moved into a greenhouse for routine cultivation.
(§4) 2 weeks after sowing, the test plants were treated at the 2- to 3-leaf stage: the compounds of the present disclosure for testing were dissolved in acetone separately, and added with Tween 80, an emulsifiable oil of 1.5 liters/ha methyl oleate was added as a synergist, and an obtained mixture was diluted with certain water to a certain concentration solution. The solution was sprayed onto the plants using a spray tower. After spraying, the weeds were cultivated in the greenhouse for 3 weeks, and the experimental effects on the weeds were counted. The effective concentrations of the compounds were 10 g/mu, 5 g/mu, and 2.5 g/mu, the experiment was repeated three times, and an average result was taken.
(§5) The activity level criteria for plant destruction (i.e. growth control rate) are as follows: • Grade 5: the growth control rate is greater than or equal to 85%; • Grade 4: the growth control rate is greater than or equal to 60% and less than 85%; • Grade 3: the growth control rate is greater than or equal to 40% and less than 60%; • Grade 2: the growth control rate is greater than or equal to 20% and less than 40%; • Grade 1: the growth control rate is greater than or equal to 5% and less than 20%; and • Grade 0: the growth control rate is less than 5%.
(§6) The growth control rate is a fresh weight control rate.

Amaranthus retroflexus = system: Amaranthus retroflexus
Description: as §1, §2, §3, §4, §5, §6

Portulaca oleracea = system: Portulaca oleracea
Description: as §1, §2, §3, §4, §5, §6

Echinochloa crusgalli = system: Echinochloa crusgalli
Description: as §1, §2, §3, §4, §5, §6

Abutilon theophrasti = system: Abutilon theophrasti
Description: as §1, §2, §3, §4, §5, §6

| Molecule | Post-emergence herbicidal activity, Trifoliumre pensL. (grade) (Trifoliumre pensL.; dosage 2.5 g/mu) | Post-emergence herbicidal activity, Trifoliumre pensL. (grade) (Trifoliumre pensL.; dosage 5 g/mu) | Post-emergence herbicidal activity, Trifoliumre pensL. (grade) (Trifoliumre pensL.; dosage 10 g/mu) | Post-emergence herbicidal activity, S. viridis (grade) (Setaria viridis; dosage 2.5 g/mu) | Post-emergence herbicidal activity, S. viridis (grade) (Setaria viridis; dosage 5 g/mu) | Post-emergence herbicidal activity, S. viridis (grade) (Setaria viridis; dosage 10 g/mu) | Post-emergence herbicidal activity, A. retroflexus (grade) (Amaranthus retroflexus; dosage 2.5 g/mu) | Post-emergence herbicidal activity, A. retroflexus (grade) (Amaranthus retroflexus; dosage 5 g/mu) | Post-emergence herbicidal activity, A. retroflexus (grade) (Amaranthus retroflexus; dosage 10 g/mu) | Post-emergence herbicidal activity, P. oleracea (grade) (Portulaca oleracea; dosage 2.5 g/mu) | Post-emergence herbicidal activity, P. oleracea (grade) (Portulaca oleracea; dosage 5 g/mu) | Post-emergence herbicidal activity, P. oleracea (grade) (Portulaca oleracea; dosage 10 g/mu) | Post-emergence herbicidal activity, E. crusgalli (grade) (Echinochloa crusgalli; dosage 2.5 g/mu) | Post-emergence herbicidal activity, E. crusgalli (grade) (Echinochloa crusgalli; dosage 5 g/mu) | Post-emergence herbicidal activity, E. crusgalli (grade) (Echinochloa crusgalli; dosage 10 g/mu) | Post-emergence herbicidal activity, A. theophrasti (grade) (Abutilon theophrasti; dosage 2.5 g/mu) | Post-emergence herbicidal activity, A. theophrasti (grade) (Abutilon theophrasti; dosage 5 g/mu) | Post-emergence herbicidal activity, A. theophrasti (grade) (Abutilon theophrasti; dosage 10 g/mu) |
| --- | --- | --- | --- | --- | --- | --- | --- | --- | --- | --- | --- | --- | --- | --- | --- | --- | --- | --- |
| 2-(4-chloro-2-fluoro-5-(2-oxo-2-(4-methyl)ethoxy)phenyl)-4,5,6,7-tetrahydro-1H-isoindole-1,3(2H)-dione [Compound C2] | 5 (Grade 5: the growth control rate is greater than or equal to 85%) | 5 (Grade 5: the growth control rate is greater than or equal to 85%) | 5 (Grade 5: the growth control rate is greater than or equal to 85%) | 2 (Grade 2: the growth control rate is greater than or equal to 20% and less than 40%) | 3 (Grade 3: the growth control rate is greater than or equal to 40% and less than 60%) | 4 (Grade 4: the growth control rate is greater than or equal to 60% and less than 85%) | 5 (Grade 5: the growth control rate is greater than or equal to 85%) | 5 (Grade 5: the growth control rate is greater than or equal to 85%) | 5 (Grade 5: the growth control rate is greater than or equal to 85%) | 5 (Grade 5: the growth control rate is greater than or equal to 85%) | 5 (Grade 5: the growth control rate is greater than or equal to 85%) | 5 (Grade 5: the growth control rate is greater than or equal to 85%) | 1 (Grade 1: the growth control rate is greater than or equal to 5% and less than 20%) | 2 (Grade 2: the growth control rate is greater than or equal to 20% and less than 40%) | 3 (Grade 3: the growth control rate is greater than or equal to 40% and less than 60%) | 5 (Grade 5: the growth control rate is greater than or equal to 85%) | 5 (Grade 5: the growth control rate is greater than or equal to 85%) | 5 (Grade 5: the growth control rate is greater than or equal to 85%) |
| O=C1C2=C(CCCC2)C(=O)N1c1cc(OCc2nc(-c3cccc(Cl)c3)no2)c(Cl)cc1F [Compound A3] | 4 (Grade 4: the growth control rate is greater than or equal to 60% and less than 85%) | 5 (Grade 5: the growth control rate is greater than or equal to 85%) | 5 (Grade 5: the growth control rate is greater than or equal to 85%) | 2 (Grade 2: the growth control rate is greater than or equal to 20% and less than 40%) | 3 (Grade 3: the growth control rate is greater than or equal to 40% and less than 60%) | 4 (Grade 4: the growth control rate is greater than or equal to 60% and less than 85%) | 5 (Grade 5: the growth control rate is greater than or equal to 85%) | 5 (Grade 5: the growth control rate is greater than or equal to 85%) | 5 (Grade 5: the growth control rate is greater than or equal to 85%) | 4 (Grade 4: the growth control rate is greater than or equal to 60% and less than 85%) | 5 (Grade 5: the growth control rate is greater than or equal to 85%) | 5 (Grade 5: the growth control rate is greater than or equal to 85%) | 1 (Grade 1: the growth control rate is greater than or equal to 5% and less than 20%) | 2 (Grade 2: the growth control rate is greater than or equal to 20% and less than 40%) | 3 (Grade 3: the growth control rate is greater than or equal to 40% and less than 60%) | 5 (Grade 5: the growth control rate is greater than or equal to 85%) | 5 (Grade 5: the growth control rate is greater than or equal to 85%) | 5 (Grade 5: the growth control rate is greater than or equal to 85%) |
| O=C1C2=C(CCCC2)C(=O)N1c1cc(OCc2nc(-c3ccccc3Br)no2)c(Cl)cc1F [Compound A4] | 4 (Grade 4: the growth control rate is greater than or equal to 60% and less than 85%) | 5 (Grade 5: the growth control rate is greater than or equal to 85%) | 5 (Grade 5: the growth control rate is greater than or equal to 85%) | 2 (Grade 2: the growth control rate is greater than or equal to 20% and less than 40%) | 3 (Grade 3: the growth control rate is greater than or equal to 40% and less than 60%) | 4 (Grade 4: the growth control rate is greater than or equal to 60% and less than 85%) | 5 (Grade 5: the growth control rate is greater than or equal to 85%) | 5 (Grade 5: the growth control rate is greater than or equal to 85%) | 5 (Grade 5: the growth control rate is greater than or equal to 85%) | 4 (Grade 4: the growth control rate is greater than or equal to 60% and less than 85%) | 5 (Grade 5: the growth control rate is greater than or equal to 85%) | 5 (Grade 5: the growth control rate is greater than or equal to 85%) | 1 (Grade 1: the growth control rate is greater than or equal to 5% and less than 20%) | 2 (Grade 2: the growth control rate is greater than or equal to 20% and less than 40%) | 3 (Grade 3: the growth control rate is greater than or equal to 40% and less than 60%) | 5 (Grade 5: the growth control rate is greater than or equal to 85%) | 5 (Grade 5: the growth control rate is greater than or equal to 85%) | 5 (Grade 5: the growth control rate is greater than or equal to 85%) |
